We go through 16 molecules from patent US9072734B2, “Quaternary ammonium salt compounds” (Teijin Pharma Limited, priority 2009, dated 2015).

Each structure is given as a SMILES string. Where a name gives a salt, the structure may show the parent alone.

For test [1], the target named is T1, human β2 adrenergic receptor (Homo sapiens, UniProt P07550).
T1 construct: expressed in transfected cells; host or cells: CHO-K1
In words: Whole-cell cAMP Flashplate assay using CHO-K1 cells stably expressing human β2 adrenergic receptor. In kind it is cell-based. As to conditions: cAMP production. On the technique in general: Changes in cAMP serve as a functional read-out for many G protein-coupled receptors.

Test [2] concerns the target T2, human M3 muscarinic receptor (Homo sapiens, UniProt P20309).
T2 construct: expressed in transfected cells; host or cells: CHO-K1
In words: Inhibitory effect on methacholine-induced calcium influx, FLIPR assay, CHO-K1 cells stably expressing the human M3 muscarinic receptor. Particulars: inhibition of calcium influx induced by methacholine. In kind it is cell-based. In short, it runs like this: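 Dye-loaded hM3 CHO-K1 cells were preincubated 180 s with compound solutions prepared at 10 two-fold concentrations (0.01–1000 nM). A 30 nM methacholine solution was then added. Fluorescence was traced for 170 s; max−min signal gave % inhibition against agonist and no-agonist controls, and IC50 came from a four-parameter logistic fit.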

T1 sequence (P07550 whole entry): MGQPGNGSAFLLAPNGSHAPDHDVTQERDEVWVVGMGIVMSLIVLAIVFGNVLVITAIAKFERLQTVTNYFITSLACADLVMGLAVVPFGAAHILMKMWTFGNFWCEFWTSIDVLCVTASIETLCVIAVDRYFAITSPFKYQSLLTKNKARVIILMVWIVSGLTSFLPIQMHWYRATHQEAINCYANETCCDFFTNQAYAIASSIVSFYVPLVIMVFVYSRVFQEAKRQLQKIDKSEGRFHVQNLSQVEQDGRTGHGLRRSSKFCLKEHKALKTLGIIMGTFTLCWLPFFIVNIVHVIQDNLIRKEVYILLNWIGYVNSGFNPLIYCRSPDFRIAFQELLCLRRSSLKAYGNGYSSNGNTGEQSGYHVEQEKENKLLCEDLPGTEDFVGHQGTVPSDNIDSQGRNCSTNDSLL
T2 sequence (P20309 whole entry): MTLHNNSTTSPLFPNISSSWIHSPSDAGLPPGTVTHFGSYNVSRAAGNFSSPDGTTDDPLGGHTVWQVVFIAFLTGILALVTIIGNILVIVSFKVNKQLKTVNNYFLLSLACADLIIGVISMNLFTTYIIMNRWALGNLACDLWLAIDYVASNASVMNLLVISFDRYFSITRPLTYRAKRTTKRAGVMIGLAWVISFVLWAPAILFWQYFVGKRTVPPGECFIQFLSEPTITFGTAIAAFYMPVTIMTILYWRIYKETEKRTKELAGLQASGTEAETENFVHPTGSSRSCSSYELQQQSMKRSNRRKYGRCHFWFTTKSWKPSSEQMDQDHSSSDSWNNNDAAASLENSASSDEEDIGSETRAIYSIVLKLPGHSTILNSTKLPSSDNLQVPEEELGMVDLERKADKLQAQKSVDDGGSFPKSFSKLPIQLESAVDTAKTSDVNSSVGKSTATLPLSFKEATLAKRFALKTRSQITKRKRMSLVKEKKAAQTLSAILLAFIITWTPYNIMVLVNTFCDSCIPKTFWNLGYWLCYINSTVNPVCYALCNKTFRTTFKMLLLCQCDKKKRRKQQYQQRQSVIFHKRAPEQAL

One may read the EC50 as the midpoint of the concentration-response curve. The low end stands for higher potency in that assay, the high end for lower potency in that assay. One may read the IC50 as the concentration that gives 50% inhibition. In test [1], `C[N+]1(C)[C@@H]2C[C@@H](OC(=O)Nc3ccc(CCCC(=O)Nc4ccc(CNC[C@H](O)c5ccc(O)c6[nH]c(=O)ccc56)cc4Br)cc3-c3ccccc3)C[C@H]1[C@@H]1O[C@@H]12` [Example 72, (1R,2R,4S,5S,7S)-7-({[4-(3-{[2-bromo-4-({[(2R)-2-hydroxy-2-(8-hydroxy-2-oxo-1,2-dihydroquinolin-5-yl)ethyl]amino}methyl)phenyl]carbamoyl}propyl)-2-phenylphenyl]carbamoyl}oxy)-9,9-dimethyl-3-oxa-9-azatricyclo[3.3.1.0^2,4]nonan-9-ium trifluoroacetate] registered a concentration for a half-maximal effect (EC50) of 0.3 nM. In addition, the IC50 in test [2] turned out to be 49 nM.

As for `COc1cc(NC(=O)CCCc2ccc(-c3ccccc3)c(NC(=O)O[C@@H]3C[C@@H]4[C@H]5O[C@H]5[C@H](C3)[N+]4(C)C)c2)c(Cl)cc1CNC[C@H](O)c1ccc(O)c2[nH]c(=O)ccc12` [Example 34, (1R,2R,4S,5S,7S)-7-({[5-(3-{[2-chloro-4-({[(2R)-2-hydroxy-2-(8-hydroxy-2-oxo-1,2-dihydroquinolin-5-yl)ethyl]amino}methyl)-5-methoxyphenyl]carbamoyl}propyl)-2-phenylphenyl]carbamoyl}oxy)-9,9-dimethyl-3-oxa-9-azatricyclo[3.3.1.0^2,4]nonan-9-ium trifluoroacetate], a half-maximal response in test [1] (EC50) required 1.2 nM. For the same molecule, the IC50 in test [2] was 22 nM.

In turn, `C[N+]1(C)CCC(OC(=O)Nc2cc(CCC(=O)Nc3ccc(CNC[C@H](O)c4ccc(O)c5[nH]c(=O)ccc45)cc3F)ccc2-c2ccccc2)CC1` [Example 4, 4-({[5-(2-{[2-fluoro-4-({[2R)-2-hydroxy-2-(8-hydroxy-2-oxo-1,2-dihydroquinolin-5-yl)ethyl]amino}methyl)phenyl]carbamoyl}ethyl)-2-phenylphenyl]carbamoyl}oxy)-1,1-dimethylpiperidin-1-ium trifluoroacetate] yielded an EC50 in test [1] of 4.1 nM. Moreover, the IC50 in test [2] worked out at 4.9 nM.

Molecule `C[N+]1(C)CCC(OC(=O)Nc2cc(CCCC(=O)Nc3ccc(CNC[C@H](O)c4ccc(O)c5[nH]c(=O)ccc45)cn3)ccc2-c2ccccc2)CC1` [Example 24, 4-({[5-(3-{[5-({[(2R)-2-hydroxy-2-(8-hydroxy-2-oxo-1,2-dihydroquinolin-5-yl)ethyl]amino}methyl)pyridin-2-yl]carbamoyl}propyl)-2-phenylphenyl]carbamoyl}oxy)-1,1-dimethylpiperidin-1-ium trifluoroacetate] registered an EC50 in test [1] of 6.6 nM. Further, the IC50 in test [2] turned out to be 11.7 nM.

For the molecule `Cc1cc(CNC[C@H](O)c2ccc(O)c3[nH]c(=O)ccc23)ccc1NC(=O)CCc1ccc(-c2ccccc2)c(NC(=O)OC2C[C@@H]3[C@H]4O[C@H]4[C@H](C2)[N+]3(C)C)c1` (stereo partly drawn) [Example 43, (1R,2R,4S,5S,7S)-7-({[5-(2-{[4-({[(2R)-2-hydroxy-2-(8-hydroxy-2-oxo-1,2-dihydroquinolin-5-yl)ethyl]amino}methyl)-2-methylphenyl]carbamoyl}ethyl)-2-phenylphenyl]carbamoyl}oxy)-9,9-dimethyl-3-oxa-9-azatricyclo[3.3.1.0^2,4]nonan-9-ium trifluoroacetate], in test [1], the response was half-maximal at 3 nM (EC50). In test [2], the IC50 worked out at 8.5 nM.

In the case of `C[N+]1(C)CCC(OC(=O)Nc2cc(CCC(=O)Nc3ccc(CNC[C@H](O)c4ccc(O)c5[nH]c(=O)ccc45)cn3)ccc2-c2ccccc2)CC1` [Example 17, 4-({[5-(2-{[5-({[(2R)-2-hydroxy-2-(8-hydroxy-2-oxo-1,2-dihydroquinolin-5-yl)ethyl]amino}methyl)pyridin-2-yl]carbamoyl}ethyl)-2-phenylphenyl]carbamoyl}oxy)-1,1-dimethylpiperidin-1-ium trifluoroacetate], the EC50 in test [1] is 5.9 nM. Further, in test [2], the IC50 was found to be 11.4 nM.

Regarding `C[N+]1(C)CCC(OC(=O)Nc2cc(CCC(=O)Nc3ccc(CNC[C@H](O)c4ccc(O)c5[nH]c(=O)ccc45)c(Cl)c3)ccc2-c2ccccc2)CC1` [Example 3, 4-({[5-(2-{[3-chloro-4-({[(2R)-2-hydroxy-2-(8-hydroxy-2-oxo-1,2-dihydroquinolin-5-yl)ethyl]amino}methyl)phenyl]carbamoyl}ethyl)-2-phenylphenyl]carbamoyl}oxy)-1,1-dimethylpiperidin-1-ium trifluoroacetate], in test [1], the EC50 turned out to be 9.7 nM. Besides, the IC50 in test [2] worked out at 16.2 nM.

The molecule `C[N+]1(C)[C@@H]2CC(OC(=O)Nc3ccc(CCCC(=O)Nc4ccc(CNC[C@H](O)c5ccc(O)c6[nH]c(=O)ccc56)cc4)cc3-c3ccccc3)C[C@H]1[C@@H]1O[C@@H]12` (stereo partly drawn) [Example 53, (1R,2R,4S,5S,7S)-7-({[4-(3-{[4-({[(2R)-2-hydroxy-2-(8-hydroxy-2-oxo-1,2-dihydroquinolin-5-yl)ethyl]amino}methyl)phenyl]carbamoyl}propyl)-2-phenylphenyl]carbamoyl}oxy)-9,9-dimethyl-3-oxa-9-azatricyclo[3.3.1.0^2,4]nonan-9-ium trifluoroacetate] gave an EC50 in test [1] of 0.6 nM. Further, the IC50 in test [2] is 53.7 nM.

For the molecule `COc1cc(NC(=O)CCCc2ccc(-c3ccccc3)c(NC(=O)O[C@@H]3C[C@@H]4[C@H]5O[C@H]5[C@H](C3)[N+]4(C)C)c2)ccc1CNC[C@H](O)c1ccc(O)c2[nH]c(=O)ccc12` [Example 36, (1R,2R,4S,5S,7S)-7-({[5-(3-{[4-({[(2R)-2-hydroxy-2-(8-hydroxy-2-oxo-1,2-dihydroquinolin-5-yl)ethyl]amino}methyl)-3-methoxyphenyl]carbamoyl}propyl)-2-phenylphenyl]carbamoyl}oxy)-9,9-dimethyl-3-oxa-9-azatricyclo[3.3.1.0^2,4]nonan-9-ium trifluoroacetate], it took 4.3 nM to reach a half-maximal effect in test [1] (EC50). Besides, the IC50 in test [2] stood at 27.1 nM.

`C[N+]1(C)CCC(OC(=O)Nc2ccc(CCC(=O)Nc3ccc(CNC[C@H](O)c4ccc(O)c5[nH]c(=O)ccc45)cc3)cc2-c2ccccc2)CC1` [Example 69, 4-({[4-(2-{[4-({[(2R)-2-hydroxy-2-(8-hydroxy-2-oxo-1,2-dihydroquinolin-5-yl)ethyl]amino}methyl)phenyl]carbamoyl}ethyl)-2-phenylphenyl]carbamoyl}oxy)-1,1-dimethylpiperidin-1-ium trifluoroacetate]: the EC50 in test [1] stood at 16 nM. For the same molecule, the IC50 in test [2] was determined as 44.7 nM.

Consider `COc1cc(NC(=O)CCCCc2ccc(-c3ccccc3)c(NC(=O)OC3C[C@@H]4[C@H]5O[C@H]5[C@H](C3)[N+]4(C)C)c2)c(Cl)cc1CNC[C@H](O)c1ccc(O)c2[nH]c(=O)ccc12` (stereo partly drawn) [Example 52, (1R,2R,4S,5S,7S)-7-({[5-(4-{[2-chloro-4-({[(2R)-2-hydroxy-2-(8-hydroxy-2-oxo-1,2-dihydroquinolin-5-yl)ethyl]amino}methyl)-5-methoxyphenyl]carbamoyl}butyl)-2-phenylphenyl]carbamoyl}oxy)-9,9-dimethyl-3-oxa-9-azatricyclo[3.3.1.0^2,4]nonan-9-ium trifluoro acetate], for which, in test [1], the EC50 is 0.4 nM. Also, in test [2], the IC50 was found to be 32.8 nM.

`C[N+]1(C)[C@@H]2CC(OC(=O)Nc3cc(CCCC(=O)Nc4ccc(CNC[C@H](O)c5ccc(O)c6[nH]c(=O)ccc56)cc4Cl)ccc3-c3ccccc3)C[C@H]1[C@@H]1O[C@@H]12` (stereo partly drawn) [Example 37, (1R,2R,4S,5S,7S)-7-({[5-(3-{[2-chloro-4-({[(2R)-2-hydroxy-2-(8-hydroxy-2-oxo-1,2-dihydroquinolin-5-yl)ethyl]amino}methyl)phenyl]carbamoyl}propyl)-2-phenylphenyl]carbamoyl}oxy)-9,9-dimethyl-3-oxa-9-azatricyclo[3.3.1.0^2,4]nonan-9-ium trifluoroacetate] came in with an EC50 in test [1] of 4 nM. The IC50 in test [2] stood at 18.2 nM.

In turn, `C[N+]1(C)[C@@H]2C[C@@H](OC(=O)Nc3ccc(CCCC(=O)Nc4ccc5cc(CNC[C@H](O)c6ccc(O)c7[nH]c(=O)ccc67)ccc5c4)cc3-c3ccccc3)C[C@H]1[C@@H]1O[C@@H]12` [Example 56, (1R,2R,4S,5S,7S)-7-({[4-(3-{[6-({[(2R)-2-hydroxy-2-(8-hydroxy-2-oxo-1,2-dihydroquinolin-5-yl)ethyl]amino}methyl)naphthalen-2-yl]carbamoyl}propyl)-2-phenylphenyl]carbamoyl}oxy)-9,9-dimethyl-3-oxa-9-azatricyclo[3.3.1.0^2,4]nonan-9-ium trifluoroacetate] displayed an EC50 in test [1] of 0.9 nM. The IC50 in test [2] is 64.1 nM.

In test [1], `Cc1cc(CNC[C@H](O)c2ccc(O)c3[nH]c(=O)ccc23)ccc1NC(=O)CCc1ccc(-c2ccccc2)c(NC(=O)OC2CC[N+](C)(C)CC2)c1` [Example 11, 4-({[5-(2-{[4-({[(2R)-2-hydroxy-2-(8-hydroxy-2-oxo-1,2-dihydroquinolin-5-yl)ethyl]amino}methyl)-2-methylphenyl]carbamoyl}ethyl)-2-phenylphenyl]carbamoyl}oxy)-1,1-dimethylpiperidin-1-ium trifluoroacetate] registered an EC50 of 3.7 nM. Also, the IC50 in test [2] was determined as 9.7 nM.

In turn, `C[N+]1(C)CCC(OC(=O)Nc2cc(CCCC(=O)Nc3ccc(CNC[C@H](O)c4ccc(O)c5[nH]c(=O)ccc45)c(Cl)c3)ccc2-c2ccccc2)CC1` [Example 29, 4-({[5-(3-{[3-chloro-4-({[(2R)-2-hydroxy-2-(8-hydroxy-2-oxo-1,2-dihydroquinolin-5-yl)ethyl]amino}methyl)phenyl]carbamoyl}propyl)-2-phenylphenyl]carbamoyl}oxy)-1,1-dimethylpiperidin-1-ium trifluoroacetate] had an EC50 in test [1] of 4.8 nM. Besides, the IC50 in test [2] turned out to be 13.6 nM.

In test [1], `C[N+]1(C)CCC(OC(=O)Nc2cc(CCCC(=O)Nc3ccc(CNC[C@H](O)c4ccc(O)c5[nH]c(=O)ccc45)cc3F)ccc2-c2ccccc2)CC1` [Example 28, 4-({[5-(3-{[2-fluoro-4-({[(2R)-2-hydroxy-2-(8-hydroxy-2-oxo-1,2-dihydroquinolin-5-yl)ethyl]amino}methyl)phenyl]carbamoyl}propyl)-2-phenylphenyl]carbamoyl}oxy)-1,1-dimethylpiperidin-1-ium trifluoroacetate] came in with an EC50 of 0.7 nM. Moreover, the IC50 in test [2] came to 10 nM.
